Laboratory results from patent US12208110B2 (priority 2020, dated 2025).
pEC50: −log10 of the molar value.

Experiments:
[1] = tested on: RSV-Fluc (Recombinant Respiratory Syncytial virus strain A2 containing the firefly luciferase reporter); test: microbe, parasite or virus in culture; assay type: cell-based; details: human respiratory syncytial virus, NHBE, 72 h, read-out: RSV-Fluc EC50 (nM, NHBE)
SARS-CoV-2 = test: microbe, parasite or virus in culture; assay type: cell-based; details: Severe acute respiratory syndrome coronavirus 2, 48 h
[2] = set-up: species or system Sprague-Dawley (SD) rats; details: male, Sprague-Dawley, rat, in vivo, po, 10 mg/kg
Experimental: Example 80: Rat Lung Phosphate (Monophosphate, Diphosphate and Triphosphate) Data with Exemplary Compounds
Measurement of GS-441524 (compound A below) and its phosphorylated metabolites (compounds B, C, and D below) in lung tissues was performed according to the following protocol.
The concentrations of GS-441524 (A) and its phosphorylated metabolites (B, C, and D) were determined in Sprague-Dawley (SD) rats following oral gavage administration of the test compounds. The in-life phase of studies was conducted at Covance Laboratories (Madison, WI). Animals were housed and handled in accordance with the Guide for the Care and Use of Laboratory Animals, Institute of Laboratory Animal Resources. The protocols were reviewed and approved by the Institutional Animal Care and Use Committees (IACUC). Male SD rats weighing approximately 0.3 kg were used for in-life portion of the studies. The animals were fasted overnight prior to the test compound administration and up to 4 hours post-dose. The animals were administered with the test compound at 5, 8, 10 or 20 mg/kg via oral gavage (3 rats per group). The aqueous formulation contains ethanol, dimethyl sulfoxide, Kolliphor HS-15, Labrasol, and propylene glycol. Approximately 0.5 grams of lung tissue samples were collected from each animal and analyzed by LC/MS/MS for determination of the concentrations of GS-441524 and its phosphorylated metabolites. For LC-MS/MS analysis, tissue samples were homogenized and extracted with 4-fold volume of 70% methanol containing 0.1% potassium hydroxide, 67 mM ethylenediamine tetraacetic acid, and internal standard. Approximately 200 μL aliquot of the homogenate was filtered using a 96-well filter plate (0.2 μm polypropylene; Agilent Captiva, Santa Clara, CA). The filtrate was evaporated to dryness and reconstituted with equal volume of 1 mM ammonium phosphate buffer (pH 7). The samples were then analyzed on a Sciex 6500+ LC-MS/MS instrument (Redwood City, CA). Analytes were eluted on a […] 50×2.0 mm Phenomenex Luna C18 HST column (Torrance, CA) using mobile phases containing 3 mM ammonium formate and 10 mM dimethylhexylamine and a linear gradient from 9% to 50% acetonitrile at a flow rate of 360 μL/min. Data acquisition and processing were accomplished using Sciex Analyst® Software. Total summed levels of GS-441524 phosphorylate metabolites (B+C+D) in lung tissues were generated from the sum of GS-441524 mono-, di- and tri-phosphate (B, C, and D respectively).

[3] = MT4 cytotoxicity analysis (CellTiter-Glo); assay type: cell-based; details: human, MT4 CC50 (nM)
Outline: (§1)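 MT-4 cells were exposed in quadruplicate to 3-fold serial compound dilutions (DMSO stocks 2.5 uM to 10 mM) for five days at 37 °C. Viability was read by CellTiter-Glo luminescence.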

MT-4 cells = test: MT4 cytotoxicity analysis (CellTiter-Glo); assay type: cell-based; details: human, 5 days
Outline: as §1

in vitro = assay type: cell-based; details: human
Experimental: Example 78: A549 Cytotoxicity Analysis
The cytotoxicity of compounds is determined in A549 cells in the following manner. Compounds (40 nL) are spotted onto 384-well Grenier plates prior to seeding 5000 A549 cells/well in a volume of 40 μL culture medium. The plates are incubated at 37° C. for 48 hours with 5% CO2. On day 2, 40 μL of CellTiter-Glo (Promega) is added and mixed 5 times. Plates are read for luminescence on an Envision (PerkinElmer) and the CC50 (compound concentration for reducing 50% of luminescence signal as a measure of cell viability) are calculated using a nonlinear regression model (four parameters). Two experiments are performed with technical duplicates.

SMILES | EC50 [1] | pEC50 (SARS-CoV-2) | Total Lung Phosphate Level (monophosphate + diphosphate + triphosphate, nmol/g) [2] | CC50 at 5 days [3] | CC50 (MT-4 cells) | CC50 at 48 h (in vitro)
CCCCCCCCCCCCCCCCCCOC[C@H](COP(=O)(O)OC[C@H]1O[C@@](C#N)(c2ccc3c(N)ncnn23)[C@H](O)[C@@H]1O)N(C)Cc1ccc(F)c(Cl)c1 [Example 3, ((2R,3S,4R,5R)-5-(4-aminopyrrolo[2,1-f][1,2,4]triazin-7-yl)-5-cyano-3,4-dihydroxytetrahydrofuran-2-yl)methyl ((R)-2-((3-chloro-4-fluorobenzyl)(methyl)amino)-3-(octadecyloxy)propyl) hydrogen phosphate] | 350 nM | 5.64 | 0.6 nmol/g | 5700 nM |  | 
CCCCCCCCCCCCCCCCCCOC[C@H](COP(=O)(O)OC[C@H]1O[C@@](C#N)(c2ccc3c(N)ncnn23)[C@H](O)[C@@H]1O)NC(=O)c1ccccc1 [Example 30, ((2R,3S,4R,5R)-5-(4-aminopyrrolo[2,1-f][1,2,4]triazin-7-yl)-5-cyano-3,4-dihydroxytetrahydrofuran-2-yl)methyl ((R)-2-benzamido-3-(octadecyloxy)propyl) hydrogen phosphate] | 130 nM | 5.08 |  |  | 50000 nM | 
CCCCCCCCCCCCCCCCCCOC[C@H](COP(=O)(O)OC[C@H]1O[C@@](C#N)(c2ccc3c(N)ncnn23)[C@H](O)[C@@H]1O)Oc1cc(OC)c(C#N)c(OC)c1 [Example 34, ((2R,3S,4R,5R)-5-(4-aminopyrrolo[2,1-f][1,2,4]triazin-7-yl)-5-cyano-3,4-dihydroxytetrahydrofuran-2-yl)methyl ((R)-2-(4-cyano-3,5-dimethoxyphenoxy)-3-(octadecyloxy)propyl) hydrogen phosphate] | 11 nM | 7.37 | 2.4 nmol/g | 460 nM |  | 10000 nM
CCCCCCCCCCCCCCCCCCC[C@H](COP(=O)(O)OC[C@H]1O[C@@](C#N)(c2ccc3c(N)ncnn23)[C@H](O)[C@@H]1O)OCc1cc(F)cc(C#N)c1 [Example 35, ((2R,3S,4R,5R)-5-(4-aminopyrrolo[2,1-f][1,2,4]triazin-7-yl)-5-cyano-3,4-dihydroxytetrahydrofuran-2-yl)methyl ((R)-2-((3-cyano-5-fluorobenzyl)oxy)henicosyl) hydrogen phosphate] | 95 nM | 6.24 | 2.7 nmol/g | 830 nM |  | 16000 nM
CCCCCCCCCCCCCCCCCCOC[C@H](COP(=O)(O)OC[C@H]1O[C@@](C#N)(c2ccc3c(N)ncnn23)[C@H](O)[C@@H]1O)OCc1cc(OC)c(C#N)c(OC)c1 [Example 55, ((2R,3S,4R,5R)-5-(4-aminopyrrolo[2,1-f][1,2,4]triazin-7-yl)-5-cyano-3,4-dihydroxytetrahydrofuran-2-yl)methyl ((R)-2-((4-cyano-3,5-dimethoxybenzyl)oxy)-3-(octadecyloxy)propyl) hydrogen phosphate] | 24 nM |  | 2.1 nmol/g | 270 nM |  | 
CCCCCCCCCCCCCCCCCCOC[C@H](COP(=O)(O)OC[C@H]1O[C@@](C#N)(c2ccc3c(N)ncnn23)[C@H](O)[C@@H]1O)NC(=O)c1cccc(C#N)c1 [Example 57, ((2R,3S,4R,5R)-5-(4-aminopyrrolo[2,1-f][1,2,4]triazin-7-yl)-5-cyano-3,4-dihydroxytetrahydrofuran-2-yl)methyl ((R)-2-(3-cyanobenzamido)-3-(octadecyloxy)propyl) hydrogen phosphate] | 330 nM | 5.31 |  |  | 50000 nM | 
CCCCCCCCCCCCSCCCOP(=O)(O)OC[C@H]1O[C@@](C#N)(c2ccc3c(N)ncnn23)[C@H](O)[C@@H]1O [Example 63, [(2R,3S,4R,5R)-5-(4-Aminopyrrolo[2,1-f][1,2,4]triazin-7-yl)-5-cyano-3,4-dihydroxy-tetrahydrofuran-2-yl]methyl 3-dodecylsulfanylpropyl hydrogen phosphate] | 470 nM | 5.00 |  |  | 50000 nM | 
CCCCCCCCCCCCCCCCCCOC[C@H](CO[P@@](=O)(S)OC[C@H]1O[C@@](C#N)(c2ccc3c(N)ncnn23)[C@H](O)[C@@H]1O)OCc1ccccc1 [Example 67, O-(((2R,3S,4R,5R)-5-(4-aminopyrrolo[2,1-f][1,2,4]triazin-7-yl)-5-cyano-3,4-dihydroxytetrahydrofuran-2-yl)methyl) O—((R)-2-(benzyloxy)-3-(octadecyloxy)propyl) O-hydrogen (R)-phosphorothioate] | 190 nM | 6.92 |  |  | 26000 nM | 
CCCCCCCCCCCCCCCCCCOC[C@H](COP(=O)(O)OC[C@H]1O[C@@](C#N)(c2ccc3c(N)ncnn23)[C@H](O)[C@@H]1O)OCc1ccccc1 [Reference Compound, reference compound] |  |  | 0.5 nmol/g |  |  | 
